Columns and labels:
Assay type in all cases: cell-based
Klebsiella pneumonia = assay: MIC against Gram-negative bacteria: Klebsiella pneumonia; details: for MIC against K. pneumonia / MIC (μg/mL) K. pneumonia: 5×10^5 CFU/mL
Procedure, shortened: (§1)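 The recombinant human-originated EGF domain proteins were serially diluted two-fold against bacteria at 5×10^5 CFU/mL in LB medium. After shaken incubation at 37° C, the lowest concentration with no bacterial growth was recorded as the MIC.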

Moraxella catarrhalis = assay: MIC against Gram-negative bacteria: Moraxella catarrhalis; details: for MIC against M. catarrhalis / MIC (μg/mL) M. catarrhalis: 5×10^5 CFU/mL
Procedure, shortened: as §1

E. coli BL21 = assay: MIC against Gram-negative bacteria: E. coli BL21; details: for MIC against E. coli BL21 / MIC (μg/mL) E. coli BL21: 5×10^5 CFU/mL
Procedure, shortened: as §1

Proteus mirabilis = assay: MIC against Gram-negative bacteria: Proteus mirabilis; details: for MIC against P. mirabilis / MIC (μg/mL) P. mirabilis: 5×10^5 CFU/mL
Procedure, shortened: as §1

Pseudomonas aeruginosa = assay: MIC against Gram-negative bacteria: Pseudomonas aeruginosa; details: for MIC against P. aeruginosa / MIC (μg/mL) P. aeruginosa: 5×10^5 CFU/mL
Procedure, shortened: as §1

Aeromonas hydrophila = assay: MIC against Gram-negative bacteria: Aeromonas hydrophila; details: for MIC against A. hydrophila / MIC (μg/mL) A. hydrophila: 5×10^5 CFU/mL
Procedure, shortened: as §1

Serratia marcescens = assay: MIC against Gram-negative bacteria: Serratia marcescens; details: for MIC against S. marcescens / MIC (μg/mL) S. marcescens: 5×10^5 CFU/mL
Procedure, shortened: as §1

Proteus vulgaris = assay: MIC against Gram-negative bacteria: Proteus vulgaris; details: for MIC against P. vulgaris / MIC (μg/mL) P. vulgaris: 5×10^5 CFU/mL
Procedure, shortened: as §1

Enterobacter cloacae = assay: MIC against Gram-negative bacteria: Enterobacter cloacae; details: for MIC against E. cloacae / MIC (μg/mL) E. cloacae: 5×10^5 CFU/mL
Procedure, shortened: as §1

E. coli DH5α = assay: Antibacterial activity: MIC and growth curve against E. coli DH5α in 96-well plate; details: minimal inhibitory concentration against E. coli DH5α; 96-well plate, 5×10^5 CFU/mL, 37° C., judged after 8 h
Procedure, shortened: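 MIC taken as lowest protein level with no bacterial growth, tracked by A600 every 30 min during 37 °C, 175 rpm culture. Two-fold protein series 50-12.5 μg/mL final, triplicate wells, against 5×10^5 CFU/mL of LB-washed mid-log cells.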

Citrobacter diversus = assay: MIC against Gram-negative bacteria: Citrobacter diversus; details: for MIC against C. diversus / MIC (μg/mL) C. diversus: 5×10^5 CFU/mL
Procedure, shortened: as §1

[1] = E. coli BL21, 10 h cultivation at 37° C.
[2] = K. pneumonia, 10 h cultivation at 37° C.
[3] = M. catarrhalis, 10 h cultivation at 37° C.
[4] = P. mirabilis, 10 h cultivation at 37° C.
[5] = P. aeruginosa, 10 h cultivation at 37° C.
[6] = A. hydrophila, 10 h cultivation at 37° C.
[7] = S. marcescens, 10 h cultivation at 37° C.
[8] = P. vulgaris, 10 h cultivation at 37° C.
[9] = E. cloacae, 10 h cultivation at 37° C.
[10] = C. diversus, 10 h cultivation at 37° C.

Row | Substance | MIC (E. coli DH5α) [mg/L] | MIC against K. pneumonia (Klebsiella pneumonia; 96-well plate, 37° C., 10 h) [mg/L] | MIC against M. catarrhalis (Moraxella catarrhalis; 96-well plate, 37° C., 10 h) [mg/L] | MIC against E. coli BL21 (E. coli BL21; 96-well plate, 37° C., 10 h) [mg/L] | MIC against P. mirabilis (Proteus mirabilis; 96-well plate, 37° C., 10 h) [mg/L] | MIC against P. aeruginosa (Pseudomonas aeruginosa; 96-well plate, 37° C., 10 h) [mg/L] | MIC against A. hydrophila (Aeromonas hydrophila; 96-well plate, 37° C., 10 h) [mg/L] | MIC against S. marcescens (Serratia marcescens; 96-well plate, 37° C., 10 h) [mg/L] | MIC against P. vulgaris (Proteus vulgaris; 96-well plate, 37° C., 10 h) [mg/L] | MIC against E. cloacae (Enterobacter cloacae; 96-well plate, 37° C., 10 h) [mg/L] | MIC against C. diversus (Citrobacter diversus; 96-well plate, 37° C., 10 h) [mg/L] | MIC (μg/mL) K. pneumonia (Klebsiella pneumonia; [2]) [µg/mL] | MIC (μg/mL) M. catarrhalis (Moraxella catarrhalis; [3]) [µg/mL] | MIC (μg/mL) E. coli BL21 (E. coli BL21; [1]) [µg/mL] | MIC (μg/mL) P. mirabilis (Proteus mirabilis; [4]) [µg/mL] | MIC (μg/mL) P. aeruginosa (Pseudomonas aeruginosa; [5]) [µg/mL] | MIC (μg/mL) A. hydrophila (Aeromonas hydrophila; [6]) [µg/mL] | MIC (μg/mL) S. marcescens (Serratia marcescens; [7]) [µg/mL] | MIC (μg/mL) P. vulgaris (Proteus vulgaris; [8]) [µg/mL] | MIC (μg/mL) E. cloacae (Enterobacter cloacae; [9]) [µg/mL] | further results
1 | PRT1389 (PEEQCIDPTCFGHGTCIMGVCICVPGYKGEICE; listed as Homo sapiens) | 25 |  |  |  |  |  |  |  |  |  |  |  |  |  |  |  |  |  |  |  | MIC against K. pneumonia (Klebsiella pneumonia; Klebsiella pneumonia, 10 h cultivation at 37° C.): 12.5 mg/L; MIC against M. catarrhalis (Moraxella catarrhalis; Moraxella catarrhalis, 10 h cultivation at 37° C.): 12.5 mg/L; MIC against E. coli BL21 (E. coli BL21; [1]): 12.5 mg/L; MIC against P. mirabilis (Proteus mirabilis; Proteus mirabilis, 10 h cultivation at 37° C.): 12.5 mg/L; MIC against P. aeruginosa (Pseudomonas aeruginosa; Pseudomonas aeruginosa, 10 h cultivation at 37° C.): 25 mg/L; MIC against A. hydrophila (Aeromonas hydrophila; Aeromonas hydrophila, 10 h cultivation at 37° C.): 12.5 mg/L; MIC against S. marcescens (Serratia marcescens; Serratia marcescens, 10 h cultivation at 37° C.): 12.5 mg/L; MIC against P. vulgaris (Proteus vulgaris; Proteus vulgaris, 10 h cultivation at 37° C.): 25 mg/L; MIC against E. cloacae (Enterobacter cloacae; Enterobacter cloacae, 10 h cultivation at 37° C.): 25 mg/L; MIC against C. diversus (Citrobacter diversus; Citrobacter diversus, 10 h cultivation at 37° C.): 12.5 mg/L
2 | PRT584 (CQCSHEGALSSLCEKTSGQCLCRTGAFGLRCDRCQRGQWGFPSCRP; listed as Homo sapiens) | 50 | 50 | 50 | 50 | 25 | 25 | 50 | 25 | 50 | 25 | 25 |  |  |  |  |  |  |  |  |  | 
3 | PRT752 (TAHMCSTLEHNCAHFCINIPGSYVCRCKQGYILNSDQTTCR; listed as Homo sapiens) | 50 |  |  |  |  |  |  |  |  |  |  | 12.5 | 25 | 25 | 50 | 12.5 | 50 | 12.5 | 25 | 12.5 | MIC (μg/mL) C. diversus (Citrobacter diversus; [10]): 12.5 µg/mL
4 | PRT197 (LGYDCTTDKCNDRGVCNNKKHCHCSASYLPPDCS; listed as Homo sapiens) | 50 |  |  |  |  |  |  |  |  |  |  | 12.5 | 12.5 | 12.5 | 12.5 | 50 | 12.5 | 12.5 | 12.5 | 50 | MIC (μg/mL) C. diversus (Citrobacter diversus; [10]): 12.5 µg/mL
5 | PRT941 (EINECSSHPCLNEGTCVDGLGTYRCSCPLGYTGKNCQ; listed as Homo sapiens) | 25 |  |  |  |  |  |  |  |  |  |  |  |  |  |  |  |  |  |  |  | MIC (Klebsiella pneumonia; [2]): 50 mg/L; MIC (Moraxella catarrhalis; [3]): 50 mg/L; MIC (E. coli BL21; [1]): 50 mg/L; MIC (Proteus mirabilis; [4]): 12.5 mg/L; MIC (Pseudomonas aeruginosa; [5]): 12.5 mg/L; MIC (Aeromonas hydrophila; [6]): 50 mg/L; MIC (Serratia marcescens; [7]): 12.5 mg/L; MIC (Proteus vulgaris; [8]): 50 mg/L; MIC (Enterobacter cloacae; [9]): 12.5 mg/L; MIC (Citrobacter diversus; [10]): 12.5 mg/L
6 | PRT460 (DRDECSGGPSPCSHACLNAPGRFSCTCPTGFALAWDDRNCR; listed as Homo sapiens) | 50 | 25 | 25 | 25 | 12.5 | 12.5 | 12.5 | 12.5 | 50 | 50 | 50 |  |  |  |  |  |  |  |  |  | 

From US9833497B2, “Human originated EGF domain proteins and use of the same” (CHENGDU SOURCEBIO LIMITED-LIABILITY COMPANY, priority 2013, dated 2017)
